Data reported in ChEMBL document CHEMBL5380831, “Azolylpyrimidinediols as Novel Structural Scaffolds of DNA-Groove Binders against Intractable Acinetobacter baumannii” (J Med Chem, 2023).
Converted amounts (≈) assume the structure as drawn.

What was measured:
Format in all cases: functional
Acinetobacter baumannii = test: Antibacterial activity against Acinetobacter baumannii assessed as bacterial growth inhibition incubated for 24 hrs by broth microdilution method
Staphylococcus aureus [1] = test: Antibacterial activity against Staphylococcus aureus ATCC 25923 assessed as bacterial growth inhibition incubated for 24 hrs by broth microdilution method
Staphylococcus aureus [2] = test: Antibacterial activity against methicillin-resistant Staphylococcus aureus assessed as bacterial growth inhibition incubated for 24 hrs by broth microdilution method
Escherichia coli [3] = test: Antibacterial activity against Escherichia coli assessed as bacterial growth inhibition incubated for 24 hrs by broth microdilution method
Klebsiella pneumoniae = test: Antibacterial activity against Klebsiella pneumoniae assessed as bacterial growth inhibition incubated for 24 hrs by broth microdilution method
Pseudomonas aeruginosa [4] = test: Antibacterial activity against Pseudomonas aeruginosa assessed as bacterial growth inhibition incubated for 24 hrs by broth microdilution method
Pseudomonas aeruginosa [5] = test: Antibacterial activity against Pseudomonas aeruginosa ATCC 27853 assessed as bacterial growth inhibition incubated for 24 hrs by broth microdilution method
Staphylococcus aureus [6] = test: Antibacterial activity against Staphylococcus aureus assessed as bacterial growth inhibition incubated for 24 hrs by broth microdilution method
Staphylococcus aureus [7] = test: Antibacterial activity against Staphylococcus aureus ATCC 29213 assessed as bacterial growth inhibition incubated for 24 hrs by broth microdilution method
Escherichia coli [8] = test: Antibacterial activity against Escherichia coli ATCC 25922 assessed as bacterial growth inhibition incubated for 24 hrs by broth microdilution method
Enterococcus faecalis = test: Antibacterial activity against Enterococcus faecalis assessed as bacterial growth inhibition incubated for 24 hrs by broth microdilution method

Row | SMILES | MIC (Acinetobacter baumannii) | MIC (Staphylococcus aureus [1]) | MIC (Staphylococcus aureus [2]) | MIC (Escherichia coli [3]) | MIC (Klebsiella pneumoniae) | MIC (Pseudomonas aeruginosa [4]) | MIC (Pseudomonas aeruginosa [5]) | MIC (Staphylococcus aureus [6]) | MIC (Staphylococcus aureus [7]) | MIC (Escherichia coli [8]) | MIC (Enterococcus faecalis)
1 | Cc1cn(-c2nccc(N(CCO)CCO)n2)cn1 | 486 µM (≈ 128 µg/mL) | 1950 µM (≈ 512 µg/mL) | 973 µM (≈ 256 µg/mL) | 973 µM (≈ 256 µg/mL) | 973 µM (≈ 256 µg/mL) | 973 µM (≈ 256 µg/mL) | 973 µM (≈ 256 µg/mL) | 973 µM (≈ 256 µg/mL) | 973 µM (≈ 256 µg/mL) | 1950 µM (≈ 512 µg/mL) | 1950 µM (≈ 512 µg/mL)
2 | O=C1c2cccc3c(N4CCN(c5nccc(-n6cncn6)n5)CC4)ccc(c23)C(=O)N1C(CO)CO | 512 µM (≈ 256 µg/mL) | 64 µM (≈ 32 µg/mL) | 512 µM (≈ 256 µg/mL) | 512 µM (≈ 256 µg/mL) | 226 µM (≈ 113 µg/mL) | 512 µM (≈ 256 µg/mL) | 512 µM (≈ 256 µg/mL) | 512 µM (≈ 256 µg/mL) | 512 µM (≈ 256 µg/mL) | 255 µM (≈ 128 µg/mL) | 256 µM (≈ 128 µg/mL)
3 | OCCN(CCO)c1ccnc(-n2ccnc2-c2ccccc2)n1 | 394 µM (≈ 128 µg/mL) | 394 µM (≈ 128 µg/mL) | 1580 µM (≈ 512 µg/mL) | 787 µM (≈ 256 µg/mL) | 787 µM (≈ 256 µg/mL) | 197 µM (≈ 64.1 µg/mL) | 787 µM (≈ 256 µg/mL) | 787 µM (≈ 256 µg/mL) | 787 µM (≈ 256 µg/mL) | 1580 µM (≈ 512 µg/mL) | 787 µM (≈ 256 µg/mL)
4 | CC(C)N(c1nccc(-n2cncn2)n1)C(C)C | 1040 µM (≈ 256 µg/mL) | 520 µM (≈ 128 µg/mL) | 520 µM (≈ 128 µg/mL) | 1040 µM (≈ 256 µg/mL) | 1040 µM (≈ 256 µg/mL) | 520 µM (≈ 128 µg/mL) | 520 µM (≈ 128 µg/mL) | 1040 µM (≈ 256 µg/mL) | 1040 µM (≈ 256 µg/mL) | 1040 µM (≈ 256 µg/mL) | 1040 µM (≈ 256 µg/mL)
5 | O=C(C(Cl)Cl)N1CCN(c2nccc(-n3cncn3)n2)CC1 | 705 µM (≈ 241 µg/mL) | 705 µM (≈ 241 µg/mL) | 705 µM (≈ 241 µg/mL) | 705 µM (≈ 241 µg/mL) | 353 µM (≈ 121 µg/mL) | 88 µM (≈ 30.1 µg/mL) | 705 µM (≈ 241 µg/mL) | 705 µM (≈ 241 µg/mL) | 705 µM (≈ 241 µg/mL) | 353 µM (≈ 121 µg/mL) | 705 µM (≈ 241 µg/mL)
6 | Cc1ncc([N+](=O)[O-])n1-c1ccnc(N(CCO)CCO)n1 | 415 µM (≈ 128 µg/mL) | 831 µM (≈ 256 µg/mL) | 831 µM (≈ 256 µg/mL) | 415 µM (≈ 128 µg/mL) | 415 µM (≈ 128 µg/mL) | 415 µM (≈ 128 µg/mL) | 1660 µM (≈ 512 µg/mL) | 415 µM (≈ 128 µg/mL) | – | 831 µM (≈ 256 µg/mL) | 406 µM (≈ 125 µg/mL)
7 | CCN(CCO)c1nccc(-n2cncn2)n1 | 1090 µM (≈ 256 µg/mL) | 1090 µM (≈ 256 µg/mL) | 1090 µM (≈ 256 µg/mL) | 1090 µM (≈ 256 µg/mL) | 1090 µM (≈ 256 µg/mL) | 547 µM (≈ 128 µg/mL) | 1090 µM (≈ 256 µg/mL) | 1090 µM (≈ 256 µg/mL) | 1090 µM (≈ 256 µg/mL) | 547 µM (≈ 128 µg/mL) | 1090 µM (≈ 256 µg/mL)
8 | OCCN(CCO)c1nccc(-n2cnnn2)n1 | 510 µM (≈ 128 µg/mL) | 1020 µM (≈ 256 µg/mL) | 2040 µM (≈ 512 µg/mL) | 1020 µM (≈ 256 µg/mL) | 1020 µM (≈ 256 µg/mL) | – | 1020 µM (≈ 256 µg/mL) | 1020 µM (≈ 256 µg/mL) | 1020 µM (≈ 256 µg/mL) | 1020 µM (≈ 256 µg/mL) | 1020 µM (≈ 256 µg/mL)
9 | Cc1cn(-c2ccnc(N(CCO)CCO)n2)c(C)n1 | 462 µM (≈ 128 µg/mL) | 924 µM (≈ 256 µg/mL) | 924 µM (≈ 256 µg/mL) | 924 µM (≈ 256 µg/mL) | 934 µM (≈ 259 µg/mL) | 924 µM (≈ 256 µg/mL) | 924 µM (≈ 256 µg/mL) | 924 µM (≈ 256 µg/mL) | 924 µM (≈ 256 µg/mL) | 924 µM (≈ 256 µg/mL) | 924 µM (≈ 256 µg/mL)
10 | OCCN(CCO)c1nccc(-n2ccnc2)n1 | 1030 µM (≈ 256 µg/mL) | 1030 µM (≈ 256 µg/mL) | 1030 µM (≈ 256 µg/mL) | 1030 µM (≈ 256 µg/mL) | 1030 µM (≈ 256 µg/mL) | 1030 µM (≈ 256 µg/mL) | 1030 µM (≈ 256 µg/mL) | 1030 µM (≈ 256 µg/mL) | 1030 µM (≈ 256 µg/mL) | 1030 µM (≈ 256 µg/mL) | 1030 µM (≈ 256 µg/mL)
11 | Cc1nc2ccccc2n1-c1ccnc(N(CCO)CCO)n1 | 204 µM (≈ 63.9 µg/mL) | 102 µM (≈ 32 µg/mL) | 204 µM (≈ 63.9 µg/mL) | 51 µM (≈ 16 µg/mL) | 204 µM (≈ 63.9 µg/mL) | 26 µM (≈ 8.15 µg/mL) | 102 µM (≈ 32 µg/mL) | 102 µM (≈ 32 µg/mL) | 204 µM (≈ 63.9 µg/mL) | 817 µM (≈ 256 µg/mL) | 409 µM (≈ 128 µg/mL)
12 | CO/N=C(/C(=O)N1CCN(c2nccc(-n3cncn3)n2)CC1)c1csc(N)n1 | 294 µM (≈ 122 µg/mL) | 587 µM (≈ 243 µg/mL) | 294 µM (≈ 122 µg/mL) | 294 µM (≈ 122 µg/mL) | 147 µM (≈ 60.9 µg/mL) | 587 µM (≈ 243 µg/mL) | 294 µM (≈ 122 µg/mL) | 294 µM (≈ 122 µg/mL) | 587 µM (≈ 243 µg/mL) | 147 µM (≈ 60.9 µg/mL) | 294 µM (≈ 122 µg/mL)
13 | OCCN(CCO)c1ccnc(-n2ccnc2)n1 | 1030 µM (≈ 256 µg/mL) | 1030 µM (≈ 256 µg/mL) | 1030 µM (≈ 256 µg/mL) | 1030 µM (≈ 256 µg/mL) | 1030 µM (≈ 256 µg/mL) | 514 µM (≈ 128 µg/mL) | 1030 µM (≈ 256 µg/mL) | 1030 µM (≈ 256 µg/mL) | 2060 µM (≈ 512 µg/mL) | 2060 µM (≈ 512 µg/mL) | 1030 µM (≈ 256 µg/mL)
14 | Cc1nccn1-c1ccnc(N(CCO)CCO)n1 | 973 µM (≈ 256 µg/mL) | 973 µM (≈ 256 µg/mL) | 973 µM (≈ 256 µg/mL) | 973 µM (≈ 256 µg/mL) | 973 µM (≈ 256 µg/mL) | 486 µM (≈ 128 µg/mL) | 973 µM (≈ 256 µg/mL) | 973 µM (≈ 256 µg/mL) | 1950 µM (≈ 512 µg/mL) | 973 µM (≈ 256 µg/mL) | 973 µM (≈ 256 µg/mL)
15 | O=[N+]([O-])c1cn(-c2ccnc(N(CCO)CCO)n2)cn1 | – | 435 µM (≈ 128 µg/mL) | 870 µM (≈ 256 µg/mL) | 435 µM (≈ 128 µg/mL) | 870 µM (≈ 256 µg/mL) | 435 µM (≈ 128 µg/mL) | 435 µM (≈ 128 µg/mL) | 435 µM (≈ 128 µg/mL) | 870 µM (≈ 256 µg/mL) | 870 µM (≈ 256 µg/mL) | 870 µM (≈ 256 µg/mL)
